From US20220047719A1, “ENHANCING SUBCUTANEOUS INJECTION AND TARGET TISSUE ACCUMULATION OF NANOPARTICLES VIA CO-ADMINISTRATION WITH MACROPINOCYTOSIS INHIBITORY NANOPARTICLES (MINP)” (Northwestern University, priority 2020, published 2022)

Assays:
RAW264.7 macrophages [1] = test: In vitro macrophage cytotoxicity, Zombie Aqua live/dead assay; format: cell-based; details: free drug
Procedure: (§1) FIG. 2. […] (a) Cryogenic transmission electron microscopy (CryoTEM) of MiNP visually confirms retention of micellar structures. (b) MiNP with ((+) MiNP) and without ((−) MiNP) loaded LatA were characterized via small angle X-ray scattering (SAXS) and fitted with a micelle model fit using SASView. […] Cells were treated with each inhibitor for 2 h followed by 30 min of incubation with pHrodo dextran prior to analysis by flow cytometry. Data are shown as a percentile scale of endocytosis inhibition. On this scale, 0% represents standard cell uptake with no inhibitor, while 100% represents complete inhibition with no uptake of dye. N=3, p<0.001. […] N=3, p<0.001. […] Macrophages were incubated with various doses of free LatA or (+) MiNP for 4 h and assessed by flow cytometry for viability via the Zombie Aqua live/dead assay. N=3, p<0.05.
(§2) To investigate macropinocytosis inhibition by MiNP and determine whether this inhibition still permits uptake via receptor-mediated endocytosis, (+) MiNP were compared to chlorpromazine, an inhibitor of receptor-mediated endocytosis. These distinct mechanisms of endocytosis were evaluated using dextran conjugated pHrodo dye and transferrin conjugated pHrodo dye to respectively quantify effects of (+) MiNP and chlorpromazine on macropinocytosis (dextran) and receptor-mediated endocytosis (transferrin). […]

RAW264.7 macrophages [2] = test: Macropinocytosis inhibition, dextran-pHrodo uptake by flow cytometry; format: cell-based; details: 2 h inhibitor, then 30 min dye
Procedure: as §1, §2

B16F10 melanoma cells = test: LatA inhibition of E-MC and E-MC(FA) uptake; format: cell-based, mouse; details: 0.5 μM LatA 2 h, then 30 min micelles
Procedure: FIG. 10. […] B16F10 melanoma cells were treated with 0.5 μM LatA for 2 h followed by 30 min of incubation with either non-targeted E-MC or folate receptor targeted E-MC(FA) prior to analysis by flow cytometry. Data are shown as percentage inhibition of endocytosis normalized to untreated […]. N=3, p<0.001.

RAW264.7 macrophages [3] = test: Receptor-mediated endocytosis, transferrin-pHrodo uptake by flow cytometry; format: cell-based; details: 2 h inhibitor, then 30 min dye
Procedure: as §1, §2

SMILES | doses with significant toxicity to macrophages (RAW264.7 macrophages [1]) | inhibition of dextran-pHrodo uptake (macropinocytosis) (RAW264.7 macrophages [2]) | inhibition of dextran-pHrodo uptake (macropinocytosis) (RAW264.7 macrophages [2]; listed as Free LatA) | inhibition of endocytosis of E-MC vs E-MC(FA) (B16F10 melanoma cells) | inhibition of transferrin-pHrodo uptake (receptor-mediated endocytosis) (RAW264.7 macrophages [3]) | inhibition of transferrin-pHrodo uptake (receptor-mediated endocytosis) (RAW264.7 macrophages [3]; listed as chlorpromazine)
C/C1=C/C(=O)O[C@@H]2C[C@@H](CC[C@H](C)/C=C\C=C\CC1)O[C@@](O)([C@@H]1CSC(=O)N1)C2 [free LatA, latrunculin A] | ≥ 0.5 µM | much stronger inhibition of uptake than free chlorpromazine | significantly inhibited macropinocytosis | inhibits uptake of non-targeted E-MC more than targeted E-MC(FA) |  | 
CN(C)CCCN1c2ccccc2Sc2ccc(Cl)cc21 [free chlorpromazine, chlorpromazine] |  |  |  |  | significantly inhibited endocytosis | significantly inhibited
